Data published in PubChem BioAssay AID1919010 (Molecular Pharmacology Branch, DTP, NCI, 2023).
pIC50: −log10 of the molar value.

Tested on: Hs578T complex spheroid growth, percent test/control
Experiment: Anticancer human tumor Hs578T cell line growth inhibition [AhR];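 also: luminescent viability signal as a proxy for spheroid growth; spheroids exposed to agents for one week after three days of growth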
Details: for pIC50: curve of first compound; for viability, T/C: stronger effect = lower value
Summary of the method: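 Spheroids combined tumor cells with HUVEC endothelial cells and human MSCs as stroma. AhR antagonists were paired with standard or investigational drugs, each dosed in half-log steps down from near clinical Cmax, or from 10 microM where Cmax was unknown.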

- pIC50 (second compound 0.1 µM): < 5.00
- pIC50 (second compound 0.316 µM): < 5.00
- pIC50 (second compound 1 µM): < 5.00
- pIC50 (second compound 3.16 µM): < 5.00
- pIC50 (second compound 10 µM): > 7.50
Structure (SMILES): CC(C)c1c(-c2ccccc2)nc2c(C#N)c[nH]n2c1=O + Cc1cncc(-c2nc(NCCc3c[nH]c4ccccc34)c3ncn(C(C)C)c3n2)c1
- viability, T/C (second compound 0.1 µM, first compound 0.0316 µM): 114%
- viability, T/C (second compound 0.1 µM, first compound 0.1 µM): 113%
- viability, T/C (second compound 0.1 µM, first compound 0.316 µM): 110%
- viability, T/C (second compound 0.1 µM, first compound 1 µM): 108%
- viability, T/C (second compound 0.1 µM, first compound 3.16 µM): 109%
- viability, T/C (second compound 0.1 µM, first compound 10 µM): 96.4%
- viability, T/C (second compound 0.316 µM, first compound 0.0316 µM): 112%
- viability, T/C (second compound 0.316 µM, first compound 0.1 µM): 104%
- viability, T/C (second compound 0.316 µM, first compound 0.316 µM): 113%
- viability, T/C (second compound 0.316 µM, first compound 1 µM): 103%
- viability, T/C (second compound 0.316 µM, first compound 3.16 µM): 109%
- viability, T/C (second compound 0.316 µM, first compound 10 µM): 107%
- viability, T/C (second compound 1 µM, first compound 0.0316 µM): 99.6%
- viability, T/C (second compound 1 µM, first compound 0.1 µM): 101%
- viability, T/C (second compound 1 µM, first compound 0.316 µM): 107%
- viability, T/C (second compound 1 µM, first compound 1 µM): 100%
- viability, T/C (second compound 1 µM, first compound 3.16 µM): 102%
- viability, T/C (second compound 1 µM, first compound 10 µM): 99.5%
- viability, T/C (second compound 3.16 µM, first compound 0.0316 µM): 61.3%
- viability, T/C (second compound 3.16 µM, first compound 0.1 µM): 65.5%
- viability, T/C (second compound 3.16 µM, first compound 0.316 µM): 68.6%
- viability, T/C (second compound 3.16 µM, first compound 1 µM): 62.9%
- viability, T/C (second compound 3.16 µM, first compound 3.16 µM): 55.8%
- viability, T/C (second compound 3.16 µM, first compound 10 µM): 66.9%
- viability, T/C (second compound 10 µM, first compound 0.0316 µM): 4.95%
- viability, T/C (second compound 10 µM, first compound 0.1 µM): 6.12%
- viability, T/C (second compound 10 µM, first compound 0.316 µM): 4.81%
- viability, T/C (second compound 10 µM, first compound 1 µM): 4.87%
- viability, T/C (second compound 10 µM, first compound 3.16 µM): 5.51%
- viability, T/C (second compound 10 µM, first compound 10 µM): 7.39%
